Tests used:
[1] = molecular target: T1, NS3 genotype 3a protease (UniProt Q81258); test: Ki determination, NS3 protease genotype 3a (fluorogenic depsipeptide substrate); type: biochemical, hepatitis C virus; conditions: NS3 protease domain genotype 3a, NS4A peptide
T1 construct: Purified NS3 protease domain (amino acids 1-181) of the genotype 1b and 3a virus were generated as above; fused on or other part: N-terminal hexahistidine tag with an rTEV protease cleavage site (vector p28-N6H-Tev-NS3(181)3)
T1 sequence (Q81258 1033-1663): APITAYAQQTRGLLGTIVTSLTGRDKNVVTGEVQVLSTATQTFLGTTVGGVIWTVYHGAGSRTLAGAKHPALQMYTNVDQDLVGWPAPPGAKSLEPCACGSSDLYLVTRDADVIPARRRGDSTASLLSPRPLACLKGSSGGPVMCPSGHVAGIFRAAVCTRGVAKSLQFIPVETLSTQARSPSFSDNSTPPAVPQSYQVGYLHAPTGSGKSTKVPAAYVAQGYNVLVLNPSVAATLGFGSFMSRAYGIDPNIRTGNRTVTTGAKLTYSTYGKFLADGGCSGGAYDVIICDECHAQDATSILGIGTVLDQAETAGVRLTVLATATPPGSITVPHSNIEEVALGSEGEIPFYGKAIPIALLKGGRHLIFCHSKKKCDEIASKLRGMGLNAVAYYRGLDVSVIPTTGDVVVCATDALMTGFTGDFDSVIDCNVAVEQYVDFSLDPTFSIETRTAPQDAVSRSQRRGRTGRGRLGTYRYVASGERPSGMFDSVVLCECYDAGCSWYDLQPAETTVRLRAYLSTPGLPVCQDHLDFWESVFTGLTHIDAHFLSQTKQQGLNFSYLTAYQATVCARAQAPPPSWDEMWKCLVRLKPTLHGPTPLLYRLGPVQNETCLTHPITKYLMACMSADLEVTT
Text: Ki Determination for Genotypes 1b and 3a NS3 Protease.
Purified NS3 protease domain (amino acids 1-181) of the genotype 1b and 3a virus were generated as above. The internally quenched fluorogenic depsipeptide substrate Ac-DED(Edans)-EEAbuψ[COO]ASK(Dabcyl)-NH2 and a synthetic peptide containing the hydrophobic core residues of the NS4A protein cofactor ([…]; NS4A peptide) were obtained from Anaspec, Inc. (San Jose, Calif.). Other chemicals and biochemicals were of reagent grade or better and were purchased from standard suppliers.
Reactions were run at room temperature in buffer consisting of 50 mM HEPES, 40% glycerol, 0.05% Triton X-100, 10 mM DTT, and 10% DMSO. The final assay solutions contained 50 pM NS3 genotype 1b protease or 200 pM genotype 3a protease, 20 μM NS4A peptide, and 4 μM substrate (genotype 1b) or 2 μM substrate (genotype 3a). Inhibitor concentrations varied from 100 nM to 5 pM in 3-fold dilutions, and no-inhibitor controls were included.
Compound dilutions were made in DMSO at 20× final concentration. Reaction mixtures were prepared in 96-well assay plates. A solution of enzyme and NS4A peptide in assay buffer (25 μL volume with both reagents at 4× final concentration) was mixed with 45 μL assay buffer and 5 μL of either inhibitor or DMSO, and pre-incubated at room temperature for 1 hour. The reaction was started by addition of 25 μL substrate solution at 4× final concentration. Plates were mixed vigorously for 5-10 seconds and reactions were allowed to proceed for 90 minutes. Fluorescence was measured every 30 s between 90 and 120 minutes reaction time using a Tecan InfiniTe M1000 or PerkinElmer Envision multimode plate reader with an excitation wavelength of 340 nm and an emission wavelength of 490 nm.
Rates were calculated from the progress curves at steady state, in the time frame of 90-120 minutes after addition of substrate. To determine the Ki, rates were plotted as a function of inhibitor concentration, and the data were fit with equation 1 (Morrison, J. F., Biochimica et Biophysica Acta 1969, 185, 269-286) to calculate Ki^app using GraphPad Prism 5. Active fraction of enzyme was determined by active site titration with known potent inhibitors. Ki was calculated from Ki^app/(1+[[S]/Km]).

[2] = tested on: genotype 1a stable HCV replicon (H77) in Huh-7-derived cells; test: Stable subgenomic HCV replicon, genotype 1a, Renilla luciferase; type: cell-based; conditions: Hepatitis C virus, stable replicon genotype 1a, 72 h, read-out: EC50 1A RLUC
Method: (§1) Antiviral potency (EC50) was determined in both stable subgenomic HCV replicon cell lines and transient-transfected HCV replicon cells. The term half maximal effective concentration (EC50) refers to the concentration of a drug which induces a response halfway between the baseline and maximum after the exposure time specified below.
(§2) Stable subgenomic HCV replicons for genotype 1a, 1b, 2a, 3a, and 4a were established in Huh-7-derived cells as described by Lohmann et al (Lohmann V, Korner F, Koch J, et al Replication of subgenomic hepatitis C virus RNAs in a hepatoma cell line. Science 1999; 285:119-3). Each stable cell line contains a bicistronic HCV replicon that encodes a humanized Renilla luciferase (hRLuc) reporter gene fused to a selectable neomycin-resistance gene, followed by an EMCV IRES and the NS3-NS5B coding region of HCV. […] Luciferase activity was measured as a marker for intracellular HCV replication levels.
(§3) The genotype 1a stable replicon was derived from the H77 HCV strain and contained adaptive mutations P1496L and S2204I. The genotype 1b stable replicon was derived from the Con1 HCV strain and contained adaptive mutations E1202G, T1280I, and K1846T. […] The genotype 3a stable replicon was derived from the S52 HCV strain and contained adaptive mutations P1121 L, A1198T and S2210I (equivalent to S2204I in genotype 1). The genotype 4a stable replicon was derived from the ED43 HCV strain and contained adaptive mutations Q1691R and S2204I. All replicon cell lines were propagated in Huh-7-derived cells and maintained in Dulbecco's modified Eagle's Medium (DMEM) supplemented with 10% fetal bovine serum (FBS) and 0.5 mg/ml G418.
(§4) To perform EC50 assays, cells from each HCV replicon were dispensed into 384-well plates. Compounds were dissolved in DMSO at a concentration of 10 mM and diluted in DMSO using an automated pipetting instrument. Three-fold serially diluted compounds were directly added to the cells using an automated instrument. DMSO was used as a negative (solvent; no inhibition) control, and a combination of three HCV inhibitors including a protease inhibitor; an NS5A inhibitor and a nucleoside inhibitor was used at concentrations >100×EC50 as a positive control (100% inhibition). Seventy-two hours later, cells were lysed and Renilla luciferase activity were quantified as recommended by the manufacturer (Promega-Madison, Wis.). Non-linear regression was performed to calculate […], values.

[3] = tested on: genotype 1a (H77) wild-type transient HCV replicon in Huh-7-derived cells; test: Transient-transfected HCV replicon, genotype 1a wild type; type: cell-based; conditions: Hepatitis C virus; transient-transfected replicon genotype 1a wild type, 72 h; read-out: EC50 1A WT
[4] = tested on: genotype 1b stable HCV replicon (Con1) in Huh-7-derived cells; test: Stable subgenomic HCV replicon, genotype 1b, Renilla luciferase; type: cell-based; conditions: Hepatitis C virus, stable replicon genotype 1b, 72 h, read-out: EC50 1B RLUC
Method: as §1, §2, §3, §4

[5] = tested on: NS3/4a protease inhibitor resistant variant R155K in genotype 1a transient HCV replicon; test: Transient-transfected HCV replicon, genotype 1a R155K; type: cell-based; conditions: Hepatitis C virus, 72 h, read-out: EC50 1A R155K

COc1ccc2nc3c(nc2c1)O[C@@H]1C[C@@H](C(=O)N[C@]2(C(=O)NS(=O)(=O)C4CC4)C[C@H]2C(F)F)N(C1)C(=O)[C@H](C(C)(C)C)NC(=O)O[C@@H]1C[C@@H]2C[C@@H]2[C@H]1CCCCC3(F)F (racemic) [Example 9, (1aS,2aR,6S,9S,11R,23aR,23bS)-6-tert-butyl-N-[(1R,2R)-1-[(cyclopropylsulfonyl)carbamoyl]-2-(difluoromethyl)cyclopropyl]-19,19-difluoro-15-methoxy-4,7-dioxo-1a,2,2a,4,5,6,7,10,11,19,20,21,22,23,23a,23b-hexadecahydro-1H,9H-8,11-methanocyclopropa[4′,5′]cyclopenta[1′,2′:18,19][1,10,3,6]dioxadiazacyclononadecino[11,12-b]quinoxaline-9-carboxamide]
Ki [1]: 0.02 nM
EC50 [2]: 1.7 nM
EC50 [3]: 1.3 nM
EC50 [4]: 1.5 nM
EC50 [5]: 1.1 nM

CC(C)(C)[C@@H]1NC(=O)O[C@@H]2C[C@@H]3C[C@@H]3[C@H]2CCCCC(F)(F)c2nc3cc(F)c(F)cc3nc2O[C@@H]2C[C@@H](C(=O)N[C@]3(C(=O)NS(=O)(=O)C4CC4)C[C@H]3C(F)F)N(C2)C1=O (racemic) [Example 15, (1aS,2aR,6S,9S,11R,23aR,23bS)-6-tert-butyl-N-[(1R,2R)-1-[(cyclopropylsulfonyl)carbamoyl]-2-(difluoromethyl)cyclopropyl]-15,16,19,19-tetrafluoro-4,7-dioxo-1a,2,2a,4,5,6,7,10,11,19,20,21,22,23,23a,23b-hexadecahydro-1H,9H-8,11-methanocyclopropa[4′,5′]cyclopenta[1′,2′:18,19][1,10,3,6]dioxadiazacyclononadecino[11,12-b]quinoxaline-9-carboxamide]
Ki [1]: 0.05 nM
EC50 [2]: 3.5 nM
EC50 [3]: 1.6 nM
EC50 [4]: 3.4 nM
EC50 [5]: 1.2 nM

COc1ccc2nc3c(nc2c1)O[C@@H]1C[C@@H](C(=O)N[C@]2(C(=O)NS(=O)(=O)C4CC4)C[C@H]2C(F)F)N(C1)C(=O)[C@H](C(C)(C)C)NC(=O)O[C@@H]1C[C@@H]2C[C@@H]2[C@H]1CCCCC3 [Example 1, (1aS,2aR,6S,9S,11R,23aR,23bS)-6-tert-butyl-N-[(1R,2R)-1-[(cyclopropylsulfonyl)carbamoyl]-2-(difluoromethyl)cyclopropyl]-15-methoxy-4,7-dioxo-1a,2,2a,4,5,6,7,10,11,19,20,21,22,23,23a,23b-hexadecahydro-1H,9H-8,11-methanocyclopropa[4′,5′]cyclopenta[1′,2′:18,19][1,10,3,6]dioxadiazacyclononadecino[11,12-b]quinoxaline-9-carboxamide]
Ki [1]: 0.03 nM
EC50 [2]: 1.1 nM
EC50 [3]: 1 nM
EC50 [4]: 0.99 nM
EC50 [5]: 1.5 nM

COc1ccc2nc3c(nc2c1)O[C@@H]1C[C@@H](C(=O)N[C@]2(C(=O)NS(=O)(=O)C4(C)CC4)C[C@H]2C(F)F)N(C1)C(=O)[C@H](C(C)(C)C)NC(=O)O[C@@H]1C[C@@H]2C[C@@H]2[C@H]1CCCCC3 [Example 2, (1aS,2aR,6S,9S,11R,23aR,23bS)-6-tert-butyl-N-[(1R,2R)-2-(difluoromethyl)-1-{[(1-methylcyclopropyl)sulfonyl]carbamoyl}cyclopropyl]-15-methoxy-4,7-dioxo-1a,2,2a,4,5,6,7,10,11,19,20,21,22,23,23a,23b-hexadecahydro-1H,9H-8,11-methanocyclopropa[4′,5′]cyclopenta[1′,2′18,19][1,10,3,6]dioxadiazacyclononadecino[11,12-b]quinoxaline-9-carboxamide]
Ki [1]: 0.04 nM
EC50 [2]: 1.1 nM
EC50 [3]: 1.1 nM
EC50 [4]: 1 nM
EC50 [5]: 1.4 nM

COc1ccc2nc3c(nc2c1)O[C@@H]1C[C@@H](C(=O)N[C@]2(C(=O)NS(=O)(=O)C4CC4)C[C@H]2CC(F)F)N(C1)C(=O)[C@H](C(C)(C)C)NC(=O)O[C@@H]1C[C@@H]2C[C@@H]2[C@H]1CCCCC3 [Example 3, (1aS,2aR,6S,9S,11R,23aR,23bS)-6-tert-butyl-N-[(1R,2S)-1-[(cyclopropylsulfonyl)carbamoyl]-2-(2,2-difluoroethyl)cyclopropyl]-15-methoxy-4,7-dioxo-1a,2,2a,4,5,6,7,10,11,19,20,21,22,23,23a,23b-hexadecahydro-1H,9H-8,11-methanocyclopropa[4′,5′]cyclopenta[1′,2′:18,19][1,10,3,6]dioxadiazacyclononadecino[11,12-b]quinoxaline-9-carboxamide]
Ki [1]: 0.21 nM
EC50 [2]: 3.8 nM
EC50 [3]: 5.1 nM
EC50 [4]: 3.2 nM
EC50 [5]: 11 nM

COc1ccc2nc3c(nc2c1)O[C@@H]1C[C@@H](C(=O)N[C@]2(C(=O)NS(=O)(=O)C4CC4)C[C@H]2C(F)F)N(C1)C(=O)[C@H](C(C)(C)C)NC(=O)O[C@@H]1[C@H]2CC[C@H](C2)[C@H]1CCCCC3 [Example 4, (1R,4S,4aR,8S,11S,13R,25aR)-8-tert-butyl-N-[(1R,2R)-1-[(cyclopropylsulfonyl)carbamoyl]-2-(difluoromethyl)cyclopropyl]-17-methoxy-6,9-dioxo-2,3,4,4a,6,7,8,9,12,13,21,22,23,24,25,25a-hexadecahydro-1H,11H-1, 4:10,13-dimethanoquinoxalino[2,3-k][1,10,3,6]benzodioxadiazacyclononadecine-11-carboxamide]
Ki [1]: 0.21 nM
EC50 [2]: 4.3 nM
EC50 [3]: 2.6 nM
EC50 [4]: 2.6 nM
EC50 [5]: 27 nM

— patent US9617310B2 (priority 2013, dated 2017)
